Assay results published in PMC5988656, “Phase I studies of AZD1208, a proviral integration Moloney virus kinase inhibitor in solid and haematological cancers” (British Journal of Cancer, 2018).

System: patients with advanced solid tumours
Assay: Solid tumour dose-escalation study: safety and tolerability (AEs, DLTs)
Text: Conducted at two UK centres and one in Japan. Dose escalation followed a rolling six design.[14] Patients received a single dose on Day 1 during Cycle 0, followed by a 3-day washout period, after which multiple dosing was initiated. Cycle 1 was a 21-day period from the first dose of multiple dosing.
The CTCAE (version 4.0) was utilised to grade all AE events.
AEs were summarised by Medical Dictionary for Regulatory Activities (MedDRA) system organ class, MedDRA preferred term and CTCAE grade. Summary statistics of mean, median, standard deviation, minimum, maximum and number of observations were used.

N[C@@H]1CCCN(c2c(/C=C3\SC(=O)NC3=O)cccc2-c2ccccc2)C1 [AZD1208]
2 (33.3) n (%): Abdominal pain (all-grade AE) (360 mg, n = 6) | Anaemia (all-grade AE) (360 mg, n = 6) | Decreased appetite (all-grade AE) (360 mg, n = 6) | Dyspnoea (all-grade AE) (360 mg, n = 6) | Hypoalbuminaemia (all-grade AE) (360 mg, n = 6) | Musculoskeletal chest pain (all-grade AE) (360 mg, n = 6) | Thrombocytopenia (all-grade AE) (360 mg, n = 6)
3 (100.0) n (%): Anaemia (all-grade AE) (120 mg, n = 3) | Patients with any AE (all-grade AE) (120 mg, n = 3)
1 (33.3) n (%): Decreased appetite (all-grade AE) (120 mg, n = 3) | Hyperglycaemia (all-grade AE) (120 mg, n = 3) | Hypoalbuminaemia (all-grade AE) (120 mg, n = 3) | Nausea (all-grade AE) (120 mg, n = 3)
1 n: Patients with CTCAE grade ≥3 AEs causally related to AZD1208 (360 mg (lymphocyte decreased))
1 (16.7) n (%): Dry skin (all-grade AE) (360 mg, n = 6) | GGT increased (all-grade AE) (360 mg, n = 6) | Hyperglycaemia (all-grade AE) (360 mg, n = 6) | Hyponatraemia (all-grade AE) (360 mg, n = 6) | Insomnia (all-grade AE) (360 mg, n = 6) | Platelet count decreased (all-grade AE) (360 mg, n = 6) | Vomiting (all-grade AE) (360 mg, n = 6) | White blood cell count decreased (all-grade AE) (360 mg, n = 6)
7 (100.0) n (%): Patients with any AE (all-grade AE) (240 mg, n = 7) | Nausea (all-grade AE) (540 mg, n = 7) | Patients with any AE (all-grade AE) (540 mg, n = 7)
0 (0.0) n (%): Abdominal pain (all-grade AE) (120 mg, n = 3) | Constipation (all-grade AE) (120 mg, n = 3) | Dry skin (all-grade AE) (120 mg, n = 3) | Dyspnoea (all-grade AE) (120 mg, n = 3) | Fatigue (all-grade AE) (120 mg, n = 3) | GGT increased (all-grade AE) (120 mg, n = 3) | Hypokalaemia (all-grade AE) (120 mg, n = 3) | Hyponatraemia (all-grade AE) (120 mg, n = 3) | Insomnia (all-grade AE) (120 mg, n = 3) | Musculoskeletal chest pain (all-grade AE) (120 mg, n = 3) | Pyrexia (all-grade AE) (120 mg, n = 3) | Thrombocytopenia (all-grade AE) (120 mg, n = 3) | Vomiting (all-grade AE) (120 mg, n = 3) | Constipation (all-grade AE) (240 mg, n = 7) | Hyperglycaemia (all-grade AE) (240 mg, n = 7) | Hypokalaemia (all-grade AE) (240 mg, n = 7) | Hyponatraemia (all-grade AE) (240 mg, n = 7) | Musculoskeletal chest pain (all-grade AE) (240 mg, n = 7) | Thrombocytopenia (all-grade AE) (240 mg, n = 7) | Hypokalaemia (all-grade AE) (360 mg, n = 6) | Constipation (all-grade AE) (540 mg, n = 7) | Pyrexia (all-grade AE) (540 mg, n = 7)
2 n: Patients requiring dose interruptions because of AEs (240 mg) | Patients with CTCAE grade ≥3 AEs causally related to AZD1208 (540 mg (vomiting, fatigue, lethargy))
4 (57.1) n (%): Anaemia (all-grade AE) (240 mg, n = 7) | Anaemia (all-grade AE) (540 mg, n = 7) | Decreased appetite (all-grade AE) (540 mg, n = 7) | Hyperglycaemia (all-grade AE) (540 mg, n = 7)
5 (71.4) n (%): Diarrhoea (all-grade AE) (240 mg, n = 7) | Vomiting (all-grade AE) (540 mg, n = 7)
1 (14.3) n (%): Dyspnoea (all-grade AE) (240 mg, n = 7) | Insomnia (all-grade AE) (240 mg, n = 7) | Pyrexia (all-grade AE) (240 mg, n = 7) | Dyspnoea (all-grade AE) (540 mg, n = 7) | Hypoalbuminaemia (all-grade AE) (540 mg, n = 7) | Insomnia (all-grade AE) (540 mg, n = 7) | Musculoskeletal chest pain (all-grade AE) (540 mg, n = 7) | Thrombocytopenia (all-grade AE) (540 mg, n = 7)
3 (42.9) n (%): Abdominal pain (all-grade AE) (240 mg, n = 7) | Decreased appetite (all-grade AE) (240 mg, n = 7) | Dry skin (all-grade AE) (240 mg, n = 7) | White blood cell count decreased (all-grade AE) (240 mg, n = 7) | Fatigue (all-grade AE) (540 mg, n = 7) | Hyponatraemia (all-grade AE) (540 mg, n = 7)
5 (83.3) n (%): Diarrhoea (all-grade AE) (360 mg, n = 6)
3 n: Patients with CTCAE grade ≥3 AEs causally related to AZD1208 (240 mg (anaemia, alanine transaminase increased, GGT increased)) | Patients requiring dose interruptions because of AEs (360 mg)
6 (85.7) n (%): Nausea (all-grade AE) (240 mg, n = 7) | Vomiting (all-grade AE) (240 mg, n = 7) | Diarrhoea (all-grade AE) (540 mg, n = 7)
3 (50.0) n (%): Constipation (all-grade AE) (360 mg, n = 6) | Fatigue (all-grade AE) (360 mg, n = 6) | Nausea (all-grade AE) (360 mg, n = 6) | Pyrexia (all-grade AE) (360 mg, n = 6)
6 (100.0) n (%): Patients with any AE (all-grade AE) (360 mg, n = 6)
Vomiting, drug permanently discontinued: DLT detail, action taken (540 mg, n = 7)
2 (28.6) n (%): Fatigue (all-grade AE) (240 mg, n = 7) | GGT increased (all-grade AE) (240 mg, n = 7) | Hypoalbuminaemia (all-grade AE) (240 mg, n = 7) | Platelet count decreased (all-grade AE) (240 mg, n = 7) | Abdominal pain (all-grade AE) (540 mg, n = 7) | Dry skin (all-grade AE) (540 mg, n = 7) | GGT increased (all-grade AE) (540 mg, n = 7) | Hypokalaemia (all-grade AE) (540 mg, n = 7) | Platelet count decreased (all-grade AE) (540 mg, n = 7)
GGT increased, drug interrupted: DLT detail, action taken (240 mg, n = 7)
2 (66.7) n (%): Diarrhoea (all-grade AE) (120 mg, n = 3) | Platelet count decreased (all-grade AE) (120 mg, n = 3) | White blood cell count decreased (all-grade AE) (120 mg, n = 3)
6 n: Patients requiring dose interruptions because of AEs (540 mg)
